“Also recorded” adds a separate entry of the source.
Legend:
Assay type in all cases: cell-based, human
G401 cells = assay: Apoptosis assay (Annexin V/7AAD flow cytometry) in kidney MRT cell line; details: G401 vs DMSO and vs SMARCB1-positive cell lines
Protocol: (§1) Similarly, G401, A498, 786-O, BT12, SW1783, and DAOY cells were plated into 6-well-plates (200,000 cells per well) and grown for 24 hours before 10 nM BTZ, 30 nM Carfilzomib (CFZ, from Active Biochemicals Co.), or DMSO as vehicle control was added to the cell culture media for another 24 hours. Subsequently, cells were carefully washed with PBS and dissociated by trypsinization. Aliquots of single cell suspensions containing 1×10^5 cells in 100 μL PBS were stained with AnnexinV-APC and 7AAD according to the manufacturer's instructions (BD Biosciences) for 15 min at RT. Subsequently, 400 μL of AnnexinV binding buffer was added (10 mM Hepes, 140 mM NaCl and 2.5 mM CaCl2), cell suspensions were placed on ice and immediately analyzed with a FACSCalibur flow cytometer (BD Biosciences). The data analysis was performed using the FlowJo software (Tree Star). For statistical analyses, an unpaired t-test was conducted using Prism 5.0 (GraphPad).

BT12 cells = assay: Apoptosis assay (Annexin V/7AAD flow cytometry) in brain AT/RT cell line; details: BT12 vs DMSO and vs SMARCB1-positive cell lines
Protocol: as §1

MCF7-SNF5-KD#73 cells = assay: Apoptosis assay (Annexin V/7AAD flow cytometry) in tetracycline-induced SMARCB1 knock-down MCF7 cells; details: 10 nM for 12 hours; Tet-induced SMARCB1 knock-down vs non-induced MCF7 cells
Protocol: 500,000 MCF7-SNF5-KD#73 cells (Xu et al., 2010) were plated into T75 tissue culture flasks (Techno Plastic Products). For knockdown experiments, tetracycline (1 μg/mL) was added on day 1 and day 3. In case of Bortezomib (BTZ)-treated cells, the drug (Santa Cruz Biotechnology, final concentration 10 nM) was added for 12 hours on day 4 (at 70-85% confluency).
as §1

[1] = system: eIF2alpha phosphorylation; assay: Western blot of eIF2alpha phosphorylation upon thapsigargin ER stress induction; details: three hour TG exposure
Protocol: Cells were harvested at 50-70% confluency, pelleted by centrifugation, and dissolved in RIPA buffer (10 mM Tris/HCl (pH 7.5), 1 mM EDTA, 1% Triton X-100, 0.1% SDS, 0.1% sodium deoxycholate, 100 mM NaCl) supplemented with protease inhibitors (2 mM PMSF and 1× Complete Mini, Roche). Supernatants were collected, protein concentrations were determined using the BCA assay (Pierce/Thermo Scientific), and proteins were separated in a 10% SDS-polyacrylamide gel. Western blotting followed standard protocols using nitrocellulose membranes (Amersham/GE Healthcare). Signal intensities were analyzed with ImageJ (http://rsb.info.nih.gov/ij/).
Antibodies used were: anti-BAF47 (SMARCB1/SNF5; BD Biosciences, San Diego, Calif.), anti-phospho-eIF2alpha (119A11; Cell Signaling), anti-beta actin-HRP (Abcam, Cambridge, UK).
The CHLA-02-ATRT cell line was obtained from ATCC and kept in neurosphere medium (DMEM/F12 (1:1) with Glutamax, B27, penicillin (100 units/mL), streptomycin (100 μg/mL; all from Invitrogen), HEPES (10 mmol/L), Partricin (0.5 μg/mL, Biochrom); insulin (20 μg/mL; Sigma Aldrich), recombinant human epidermal growth factor (EGF; 20 ng/mL), and rhFGFbasic (20 ng/mL; PAN Biotech)). The human malignant rhabdoid tumor cell line LM (provided by Rupert Handgretinger, Tuebingen, Germany) was kept according to Versteege et al. (Nature 1998). DAOY medulloblastoma cells (provided by Michael Grotzer, Zurich, Switzerland) were kept in EMEM (PAA) supplemented with 10% FBS (Biochrom), 2 mM glutamine, 100 units/mL Penicillin/Streptomycin (Invitrogen), and 2.5 μg/mL Amphotericin B (PAA). Hs683 glioma cell lines (provided by Matthias Simon, Bonn, Germany) were kept in DAOY medium with 1 mM sodium pyruvate, MEM non-essential amino acids, and MEM vitamin solution (all from Invitrogen). SW1783 glioblastoma cells (provided by Matthias Simon, Bonn, Germany) and BT12 AT/RT cells (provided by Michael Grotzer, Zurich, Switzerland) were kept in DMEM (1 g/l glucose) supplemented with 10% FBS (Biochrom), 2 mM glutamine, 100 units/ml Penicillin/Streptomycin (Invitrogen) and 2.5 μg/ml Amphotericin B (PAA).
MCF7-SNF5-KD#73 cells (Xu et al., 2010) were cultured in DMEM (4.5 g/L glucose, Invitrogen), 10% FBS (Tet System Approved, Clontech), 2 mM glutamine, and 100 units/mL Penicillin/Streptomycin (Invitrogen). For the knock-down of SMARCB1, tetracycline (1 μg/mL) was added on day 1 and 3, and cells harvested at day 4. At day 4, cells were treated with DTT (5 mM) or Thapsigargin (5 μM). 786-O and A-498 cells (both from Angelika Toelle, Charité Berlin, Germany), HepG2 cells (from Peter Nilsson-Ehle, Lund University, Sweden), and G401 (ATCC) were kept in RPMI1640 (PAA) supplemented with 10% FBS (Biochrom), 2 mM glutamine, 100 units/mL Penicillin/Streptomycin (Invitrogen), and 2.5 μg/mL Amphotericin B (PAA). A-204 (ATCC) were grown in McCoy's 5a modified medium supplemented with 10% FBS (Biochrom), 100 units/mL Penicillin/Streptomycin (Invitrogen), and 2.5 μg/mL Amphotericin B (PAA). All cells were kept in T75 tissue culture flasks (Techno Plastic Products).

[2] = 10 nM BTZ for 24 hours, listed as BTZ

CC(C)C[C@H](NC(=O)[C@H](CCc1ccccc1)NC(=O)CN1CCOCC1)C(=O)N[C@@H](Cc1ccccc1)C(=O)N[C@@H](CC(C)C)C(=O)[C@@]1(C)CO1 [Carfilzomib]
Apoptosis (Annexin V-positive and 7AAD-negative cells) (G401 cells; 30 nM CFZ for 24 hours): highest apoptosis; also recorded: increased apoptosis
Apoptosis (Annexin V-positive and 7AAD-negative cells) (BT12 cells; 30 nM CFZ for 24 hours): highest apoptosis; also recorded: increased apoptosis

CC(C)C[C@H](NC(=O)[C@H](Cc1ccccc1)NC(=O)c1cnccn1)B(O)O [Bortezomib, [(1R)-3-methyl-1-({(2S)-3-phenyl-2-[(pyrazin-2-ylcarbonyl)-amino]propanoyl}amino)butyl]boronic acid]
Apoptosis (Annexin V-positive and 7AAD-negative cells) (MCF7-SNF5-KD#73 cells): increased apoptosis
Apoptosis (Annexin V-positive and 7AAD-negative cells) (G401 cells; 10 nM BTZ for 24 hours): increased apoptosis
Apoptosis (Annexin V-positive and 7AAD-negative cells) (G401 cells; [2]): highest apoptosis
Apoptosis (Annexin V-positive and 7AAD-negative cells) (BT12 cells; 10 nM BTZ for 24 hours): increased apoptosis
Apoptosis (Annexin V-positive and 7AAD-negative cells) (BT12 cells; [2]): highest apoptosis

C/C=C(/C)C(=O)O[C@H]1C(C)=C2[C@H]([C@@H]1OC(=O)CCCCCCC)[C@@](C)(OC(C)=O)C[C@H](OC(=O)CCC)[C@@]1(O)[C@H]2OC(=O)[C@@]1(C)O [TG, Thapsigargin]
Fold-change of β-actin-normalized phosphorylated eIF2alpha signal intensities between TSG-treated and untreated cells ([1]; 786-O (SMARCB1-positive renal cell carcinoma)): 0.60
Fold-change of β-actin-normalized phosphorylated eIF2alpha signal intensities between TSG-treated and untreated cells ([1]; A-204 (MRT, muscle origin, lacking SMARCB1)): 1.39
Fold-change of β-actin-normalized phosphorylated eIF2alpha signal intensities between TSG-treated and untreated cells ([1]; A-498 (SMARCB1-positive renal cell carcinoma)): 1.12
Fold-change of β-actin-normalized phosphorylated eIF2alpha signal intensities between TSG-treated and untreated cells ([1]; CHLA2 (AT/RT, lacking SMARCB1)): 5.89
Fold-change of β-actin-normalized phosphorylated eIF2alpha signal intensities between TSG-treated and untreated cells ([1]; DAOY (SMARCB1-positive brain tumor)): 0.77
Fold-change of β-actin-normalized phosphorylated eIF2alpha signal intensities between TSG-treated and untreated cells ([1]; G401 (MRT, kidney origin, lacking SMARCB1)): 2.49
Fold-change of β-actin-normalized phosphorylated eIF2alpha signal intensities between TSG-treated and untreated cells ([1]; HepG2 (SMARCB1-positive hepatocellular carcinoma)): 0.56
Fold-change of β-actin-normalized phosphorylated eIF2alpha signal intensities between TSG-treated and untreated cells ([1]; Hs683 (SMARCB1-positive brain tumor)): 0.81
Fold-change of β-actin-normalized phosphorylated eIF2alpha signal intensities between TSG-treated and untreated cells ([1]; LM (MRT, liver origin, lacking SMARCB1)): 1.27
Fold-change of β-actin-normalized phosphorylated eIF2alpha signal intensities between TSG-treated and untreated cells ([1]; SW1783 (SMARCB1-positive brain tumor)): 0.75

Reference: patent publication US9429574B2, “Cancer therapies and methods” (priority 2011, dated 2016)
